Assays:
cytochrome bd-I = molecular target: T1, cytochrome bd-I (Escherichia coli, UniProt P0ABJ9); experiment: UV-visible absorption titration of the isolated oxidized enzyme at pH […] (Soret region, […] nm); activation of O2 reductase activity also shown; format: binding
T1 construct: gene cydA; isolated cytochrome bd-I; with other subunits of the four-subunit cytochrome bd-I complex

cytochrome bo3 = molecular target: T2, cytochrome bo3 (Escherichia coli, UniProt P0ABI8); experiment: UV-visible absorption titration of the isolated oxidized enzyme at pH […] (Soret region, […] nm); inhibition of O2 reductase activity also shown; format: binding
T2 construct: gene cyoB; isolated four-subunit His-tagged cytochrome bo3; with other subunits of the four-subunit cytochrome bo3 complex
T2 sequence (P0ABJ1 25-315): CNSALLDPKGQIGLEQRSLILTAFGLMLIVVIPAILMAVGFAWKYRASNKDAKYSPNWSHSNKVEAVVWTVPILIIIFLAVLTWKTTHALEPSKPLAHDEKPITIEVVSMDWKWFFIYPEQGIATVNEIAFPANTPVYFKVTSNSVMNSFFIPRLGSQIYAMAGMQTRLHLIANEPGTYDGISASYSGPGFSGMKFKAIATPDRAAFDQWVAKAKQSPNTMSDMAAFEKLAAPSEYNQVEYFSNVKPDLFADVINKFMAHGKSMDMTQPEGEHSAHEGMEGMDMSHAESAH
T2 sequence (P0ABJ6 whole entry, further chain): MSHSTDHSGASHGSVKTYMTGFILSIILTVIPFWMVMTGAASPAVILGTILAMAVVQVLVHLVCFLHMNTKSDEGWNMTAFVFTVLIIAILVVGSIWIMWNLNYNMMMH
T2 sequence (P0ABI8 whole entry): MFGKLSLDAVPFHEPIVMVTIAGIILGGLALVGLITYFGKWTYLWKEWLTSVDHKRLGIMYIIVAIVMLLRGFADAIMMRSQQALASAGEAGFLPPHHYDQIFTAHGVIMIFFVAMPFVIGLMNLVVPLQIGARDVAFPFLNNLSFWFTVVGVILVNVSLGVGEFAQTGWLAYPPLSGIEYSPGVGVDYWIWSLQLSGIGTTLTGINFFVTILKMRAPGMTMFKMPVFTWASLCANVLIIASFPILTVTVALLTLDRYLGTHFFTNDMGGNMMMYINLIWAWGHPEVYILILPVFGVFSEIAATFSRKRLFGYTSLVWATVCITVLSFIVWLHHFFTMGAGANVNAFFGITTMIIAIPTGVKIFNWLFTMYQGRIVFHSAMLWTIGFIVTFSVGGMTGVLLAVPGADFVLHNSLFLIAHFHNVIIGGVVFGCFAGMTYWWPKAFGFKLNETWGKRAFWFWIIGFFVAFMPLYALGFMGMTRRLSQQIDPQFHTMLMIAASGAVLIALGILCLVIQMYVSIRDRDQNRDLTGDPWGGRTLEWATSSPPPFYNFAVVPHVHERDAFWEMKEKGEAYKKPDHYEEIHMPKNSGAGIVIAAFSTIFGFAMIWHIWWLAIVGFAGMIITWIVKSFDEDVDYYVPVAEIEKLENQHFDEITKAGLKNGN
T2 sequence (P0ABJ3 whole entry, further chain): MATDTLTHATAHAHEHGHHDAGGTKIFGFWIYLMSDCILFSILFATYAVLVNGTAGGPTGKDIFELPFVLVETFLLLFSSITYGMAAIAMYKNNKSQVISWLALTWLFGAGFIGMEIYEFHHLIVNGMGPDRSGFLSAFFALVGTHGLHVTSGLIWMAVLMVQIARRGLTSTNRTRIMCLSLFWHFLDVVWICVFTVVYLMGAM

T1 sequence (P0ABK2 whole entry): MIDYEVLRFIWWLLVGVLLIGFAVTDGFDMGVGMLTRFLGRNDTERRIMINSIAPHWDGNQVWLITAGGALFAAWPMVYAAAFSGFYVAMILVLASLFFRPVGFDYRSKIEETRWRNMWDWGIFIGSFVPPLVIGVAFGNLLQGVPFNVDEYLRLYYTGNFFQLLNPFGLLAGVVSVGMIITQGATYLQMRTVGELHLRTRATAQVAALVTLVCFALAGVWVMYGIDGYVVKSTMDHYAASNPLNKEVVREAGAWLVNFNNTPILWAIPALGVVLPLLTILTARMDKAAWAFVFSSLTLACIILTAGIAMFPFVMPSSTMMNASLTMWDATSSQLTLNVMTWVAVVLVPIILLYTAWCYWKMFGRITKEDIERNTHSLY
T1 sequence (P0ABJ9 whole entry): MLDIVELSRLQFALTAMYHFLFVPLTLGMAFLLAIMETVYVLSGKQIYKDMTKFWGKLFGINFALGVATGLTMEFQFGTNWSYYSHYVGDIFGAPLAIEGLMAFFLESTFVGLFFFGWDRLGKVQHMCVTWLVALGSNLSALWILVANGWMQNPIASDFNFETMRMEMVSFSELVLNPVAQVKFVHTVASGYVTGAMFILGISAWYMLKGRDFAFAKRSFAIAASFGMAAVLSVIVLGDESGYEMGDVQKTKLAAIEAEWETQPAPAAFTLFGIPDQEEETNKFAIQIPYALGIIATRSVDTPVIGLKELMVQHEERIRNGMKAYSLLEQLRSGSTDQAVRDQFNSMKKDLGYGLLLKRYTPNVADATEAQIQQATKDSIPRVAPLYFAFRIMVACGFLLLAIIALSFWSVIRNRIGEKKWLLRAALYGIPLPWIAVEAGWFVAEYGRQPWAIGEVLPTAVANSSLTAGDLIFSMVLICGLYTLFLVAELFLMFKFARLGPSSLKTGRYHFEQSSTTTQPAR

Compound: N [ammonia]
- Kd (cytochrome bd-I): 7.2 ± 1.4 mM
- Kd (cytochrome bo3): 4.9 ± 0.5 mM
